Reference: US20080063628A1, “METHODS TO PROMOTE CELL DIFFERENTIATION” (priority 2006, published 2008)

Experiments:
[1] = tested on: late passage (P11) pancreatic-derived stromal cell line; experiment: Two high dose trichostatin A treatments (first 48 h), gene expression by RT-PCR (Example 9); assay type: cell-based, human; conditions: for HNF-3 beta gene expression / Insulin gene expression / Pdx-1 gene expression / glucagon gene expression: 5 μM 0-48 h + 96-120 h; for HNF-3 beta RT-PCR detection cycle / Pdx-1 RT-PCR detection cycle / glucagon RT-PCR detection cycle: 5.0 μM;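 as to HNF-3 beta RT-PCR detection cycle: lower cycle number means higher gene expression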;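 as to glucagon RT-PCR detection cycle: lower cycle number means higher gene expression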
Description: (§1) Several cell lines obtained from different amniotic fluid specimens (see Example 14) and pancreas donors (see Example 13) were tested with similar results. Two lines at similar passage number but derived from different amniotic fluid specimens are shown in Table VIII-A and Table VIII-B for this example. One of these cell lines was also used in examples 2 and 4 above. In addition, this example also contains comparison data in Table VIII-C and Table VIII-D for a single pancreatic-derived stromal line grown to early and late passage number.
(§2) Amniotic fluid derived cells or pancreatic-derived stromal cells were seeded into 24-well tissue culture plates at a density of 5000/cm^2 and cultured in AMNIOMAX (Invitrogen) or DMEM with 10% FBS respectively under standard cell culture conditions until confluent. After reaching confluence, amniotic fluid derived cells were treated at time 0 hours with a dose of 1.25 μM trichostatin A, and pancreatic-derived stromal cells were treated with a dose of 5.0 μM trichostatin A solubilized in DMSO and medium. At time 48 hours, cell cultures underwent a complete medium change to remove all traces of trichostatin A. At time 96 hours, cell cultures were re-fed with fresh medium and received a second dose of trichostatin A at the same concentration as used previously. At time 120 hours, cell cultures again underwent a complete medium change and were cultured for an additional 24 hours or […] total incubation time. Samples were taken for RT-PCR at the times indicated in Table IX-A to D. RNA samples were obtained daily from the start of the experiment. Culture medium was removed, and cells were washed with PBS then collected in RLT with β-mercaptoethanol (Qiagen). RNA was purified using the RNeasy Mini Kit (Qiagen) and RNA quantity and quality was determined using a spectrophotometer. cDNA was made using the iScript cDNA synthesis kit (BioRad). Human pancreas cDNA was included as a control. Results were normalized against GAPDH expression levels.
(§3) Gene expression levels of Sox17, HNF-3 beta, Pdx-1, insulin, and glucagon were analyzed in amniotic-derived cells, while expression levels of glucagon, insulin, HNF-3 beta, and Pdx-1 were analyzed in pancreas-derived cells. Samples of 20 ng cDNA was used in each Real-Time PCR reaction. RT-PCR was performed on the Applied Biosystems 7500, according to the methods described in Example 15. The data were analyzed using the accompanying software.
(§4) Real-time PCR amplifcation and quantitative analysis. Unless otherwise stated, all reagents were purchased from Applied Biosystems. Real-time PCR reactions were performed using the ABI PRISM™ 7500 Sequence Detection System. TAQMAN™ FAST UNIVERSAL PCR MASTER MIX™ (ABI, CA) was used with 20 ng of reverse transcribed RNA in a total reaction volume of 20 μl. Each cDNA sample was run in duplicate to allow correction of pipetting errors. Primers and FAM-labeled TAQMAN™ probes were used at concentrations of 200 nM. The level of expression for each target gene was normalized using the pre-developed Applied Biosystem's human glyceraldehyde-3-phosphate dehydrogenase (GAPDH) endogenous control kit. Primers and probes were designed using either ABI PRISM PRIMER EXPRESS™ software or a pre-developed ABI gene analysis kit. For each gene, either one of the primers or the probe were designed to be exon-boundary spanning. This eliminated the possibility of the primers/probe binding to any genomic DNA present. The primer and probe sets are listed as follows: Pdx-1 (Hs00426216), Insulin (Hs00355773), glucagon (Hs00174967), and FoxA2 (HNF 3-beta) (Hs00232764). The remaining primers were designed using the PRIMERS program (ABI, CA). After an initial 95° C. incubation for 20 sec, samples were cycled 40 times in two stages: a denaturation step at 95° C. for 3 sec, followed by an annealing/extension step at 60° C. for 30 sec. […]

[2] = tested on: second amniotic fluid-derived cell line; experiment: as above; assay type: cell-based, human; conditions: for Gata1 gene expression / HNF-3 beta gene expression / Insulin gene expression / Pdx-1 gene expression / sox17 gene expression: 1.25 μM 0-48 h + 96-120 h;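 as to Gata-1 RT-PCR detection cycle: lower cycle number means higher gene expression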;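 as to HNF-3 beta RT-PCR detection cycle: lower cycle number means higher gene expression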
Description: as §1, §2, §3, §4

[3] = for 48 hours following addition
[4] = once trichostatin A was added again
[5] = 1.25 μM, following the second treatment

CC(/C=C/C(=O)NO)=C\[C@@H](C)C(=O)c1ccc(N(C)C)cc1 [trichostatin A]
HNF-3 beta gene expression ([1]; 24 hrs): +++ (detectable at less than 35 cycles by RT-PCR with SE less than 0.9)
Insulin gene expression ([1]; 24 hrs): nd (not detectable at >40 cycles by RT-PCR)
Pdx-1 gene expression ([1]; 24 hrs): + (detectable between 35 and 40 cycles by RT-PCR)
glucagon gene expression ([1]; 24 hrs): +++ (detectable at less than 35 cycles by RT-PCR with SE less than 0.9)
HNF-3 beta gene expression ([1]; 48 hrs): +++ (detectable at less than 35 cycles by RT-PCR with SE less than 0.9)
Insulin gene expression ([1]; 48 hrs): nd (not detectable at >40 cycles by RT-PCR)
Pdx-1 gene expression ([1]; 48 hrs): +++ (detectable at less than 35 cycles by RT-PCR with SE less than 0.9)
glucagon gene expression ([1]; 48 hrs): +++ (detectable at less than 35 cycles by RT-PCR with SE less than 0.9)
HNF-3 beta gene expression ([1]; 72 hrs): nd (not detectable at >40 cycles by RT-PCR)
Insulin gene expression ([1]; 72 hrs): nd (not detectable at >40 cycles by RT-PCR)
Pdx-1 gene expression ([1]; 72 hrs): nd (not detectable at >40 cycles by RT-PCR)
glucagon gene expression ([1]; 72 hrs): + (detectable between 35 and 40 cycles by RT-PCR)
HNF-3 beta gene expression ([1]; 96 hrs): nd (not detectable at >40 cycles by RT-PCR)
Insulin gene expression ([1]; 96 hrs): nd (not detectable at >40 cycles by RT-PCR)
Pdx-1 gene expression ([1]; 96 hrs): nd (not detectable at >40 cycles by RT-PCR)
glucagon gene expression ([1]; 96 hrs): nd (not detectable at >40 cycles by RT-PCR)
HNF-3 beta gene expression ([1]; 120 hrs): +++ (detectable at less than 35 cycles by RT-PCR with SE less than 0.9)
Insulin gene expression ([1]; 120 hrs): + (detectable between 35 and 40 cycles by RT-PCR)
Pdx-1 gene expression ([1]; 120 hrs): +++ (detectable at less than 35 cycles by RT-PCR with SE less than 0.9)
glucagon gene expression ([1]; 120 hrs): + (detectable between 35 and 40 cycles by RT-PCR)
HNF-3 beta RT-PCR detection cycle ([1]; after addition): 32 cycles
Pdx-1 RT-PCR detection cycle ([1]; after addition): 31 cycles
glucagon RT-PCR detection cycle ([1]; after addition (for 48 hours)): 33 cycles
glucagon RT-PCR detection cycle ([1]; following the removal): 37 cycles
HNF-3 beta RT-PCR detection cycle [1, 3]: 33 cycles
Pdx-1 RT-PCR detection cycle [1, 3]: 32 cycles
HNF-3 beta RT-PCR detection cycle [1, 4]: 34 cycles
Pdx-1 RT-PCR detection cycle [1, 4]: 33 cycles
glucagon RT-PCR detection cycle ([1]; second treatment): 35 cycles
Gata1 gene expression ([2]; 24 hrs): + (detectable between 35 and 40 cycles by RT-PCR)
HNF-3 beta gene expression ([2]; 24 hrs): +++ (detectable at less than 35 cycles by RT-PCR with SE less than 0.9)
Insulin gene expression ([2]; 24 hrs): nd (not detectable at >40 cycles by RT-PCR)
Pdx-1 gene expression ([2]; 24 hrs): ++ (detectable at less than 35 cycles by RT-PCR with SE greater than 0.9)
sox17 gene expression ([2]; 24 hrs): +++ (detectable at less than 35 cycles by RT-PCR with SE less than 0.9)
Gata1 gene expression ([2]; 48 hrs): nd (not detectable at >40 cycles by RT-PCR)
HNF-3 beta gene expression ([2]; 48 hrs): +++ (detectable at less than 35 cycles by RT-PCR with SE less than 0.9)
Insulin gene expression ([2]; 48 hrs): nd (not detectable at >40 cycles by RT-PCR)
Pdx-1 gene expression ([2]; 48 hrs): + (detectable between 35 and 40 cycles by RT-PCR)
sox17 gene expression ([2]; 48 hrs): +++ (detectable at less than 35 cycles by RT-PCR with SE less than 0.9)
Gata1 gene expression ([2]; 72 hrs): nd (not detectable at >40 cycles by RT-PCR)
HNF-3 beta gene expression ([2]; 72 hrs): +++ (detectable at less than 35 cycles by RT-PCR with SE less than 0.9)
Insulin gene expression ([2]; 72 hrs): nd (not detectable at >40 cycles by RT-PCR)
Pdx-1 gene expression ([2]; 72 hrs): nd (not detectable at >40 cycles by RT-PCR)
sox17 gene expression ([2]; 72 hrs): +++ (detectable at less than 35 cycles by RT-PCR with SE less than 0.9)
Gata1 gene expression ([2]; 96 hrs): nd (not detectable at >40 cycles by RT-PCR)
HNF-3 beta gene expression ([2]; 96 hrs): + (detectable between 35 and 40 cycles by RT-PCR)
Insulin gene expression ([2]; 96 hrs): nd (not detectable at >40 cycles by RT-PCR)
Pdx-1 gene expression ([2]; 96 hrs): nd (not detectable at >40 cycles by RT-PCR)
sox17 gene expression ([2]; 96 hrs): +++ (detectable at less than 35 cycles by RT-PCR with SE less than 0.9)
Gata1 gene expression ([2]; 120 hrs): + (detectable between 35 and 40 cycles by RT-PCR)
HNF-3 beta gene expression ([2]; 120 hrs): +++ (detectable at less than 35 cycles by RT-PCR with SE less than 0.9)
Insulin gene expression ([2]; 120 hrs): nd (not detectable at >40 cycles by RT-PCR)
Pdx-1 gene expression ([2]; 120 hrs): +++ (detectable at less than 35 cycles by RT-PCR with SE less than 0.9)
sox17 gene expression ([2]; 120 hrs): +++ (detectable at less than 35 cycles by RT-PCR with SE less than 0.9)
HNF-3 beta RT-PCR detection cycle ([2]; 1.25 μM, by 96 hours): 37 cycles
HNF-3 beta RT-PCR detection cycle ([2]; 1.25 μM, first 72 hours): 34 cycles
Pdx-1 RT-PCR detection cycle ([2]; 1.25 μM, following the initial 48-hour treatment): 35 cycles
Gata-1 RT-PCR detection cycle [2, 5]: 38 cycles
HNF-3 beta RT-PCR detection cycle [2, 5]: 33 cycles
Pdx-1 RT-PCR detection cycle [2, 5]: 34 cycles
